System: NKT cells
Assay: Repeated in vivo NKT cell stimulation, serum IFN-γ by ELISA
Set-up: species or system C57BL/6 mice
Details: for IFN-γ (serum): 1 μg αGalCer i.v., bled 24 hours after treatment, mean ± SD of three mice
Method: Nanoparticle containing 1 μg alpha-galactosylceramide was injected to C57BL6 mice, with non-conjugated nanoparticles as negative control. In parallel, we studied soluble form of alpha-galactosylceramide.
C57/BL6 mice were purchased from the Jackson Laboratory (Bar Arbor, Me.) and housed in M.D. Anderson Cancer Center animal facilities under standard pathogen free conditions abiding institutional guidelines. 6 weeks old C57BL/6 mice were used for all experiments. 3 mice per group were used for each experiment. 1 μg alpha-galactosylceramide, or nanoparticle formulated alpha-galactosylceramide in 200 μL PBS was intravenously injected (through tail vein) to each mouse. Mice were treated every 10 days for 3 times. 200 μL of PBS/1% DMSO was used as control.
Mice were bled at 24 hours after each drug treatment. Serum IFN-γ was measured by ELISA using a kit from BD Biosciences (San Jose, Calif.).

CCCCCCCCCCCCCCCCCCCCCCCCCC(=O)N[C@@H](CO[C@H]1O[C@H](CO)[C@H](O)[C@H](O)[C@H]1O)[C@H](O)[C@H](O)CCCCCCCCCCCCCC [αGalCer, Alpha-galactosylceramide]
IFN-γ secretion upon repeated stimulation (anergy of NKT cells) (3 treatments every 10 days, i.v.): caused IFN-γ secretion only at the first treatment and failed to induce upon subsequent stimulations | IFN-γ (serum) (x1 injection): 2601 ± 257 pg/mL | IFN-γ (serum) (x2 injection (every 10 days)): 65 ± 2 pg/mL | IFN-γ (serum) (x3 injection (every 10 days)): 40 ± 11 pg/mL

From US8546371B2, “Nanoparticle formulated glycolipid antigens for immunotherapy” (Board of Regents, The University of Texas System, priority 2009, dated 2013)
